Test results as given in patent publication US20220396777A1, “PATIENT-MATCHED ORGANOID SYSTEMS FOR STUDYING CANCER” (Dana-Farber Cancer Institute, Inc., priority 2019, published 2022).

System: organoids from classical versus basal-like tumors
Test: IFNγ treatment of organoids from classical and basal-like tumors
Type: cell-based, human
Source text: FIG. 37—Micrographs and graph showing results of IFNγ treatment in organoids from classical and basal-like tumors.
Applicants next asked whether organoids from classical versus basal-like tumors respond differently to addition of IFNγ.

## IFNγ: cytokine (type II interferon) added to organoid cultures
Classical expression state, patient-derived PDAC organoids (FIG. 37)
  effect on expression state in organoids: select against the classical expression state
patient-derived PDAC organoids (FIG. 37)
  return to a basal state: may not be sufficient to drive complete return to a basal state
patient-derived PDAC organoids, classical versus basal-like tumors, preliminary results (FIG. 37)
  growth inhibition by IFNγ: more pronounced in organoids derived from classical tumors
